This note sets out measurements from US9546173B2 (Novartis AG, priority 2012, dated 2017).

This experiment deals with activated ERK2 (Homo sapiens (Human), UniProt P28482). The experiment in a line: Activated ERK2 kinase assay (AlphaScreen, ERKtide peptide phosphorylation). It counts as biochemical. The settings on record: […] ERK2, 200 nM ERKtide peptide, 35 μM ATP, 30 min preincubation; read-out: ERK2 IC50. (In general: In Alpha technology, singlet oxygen from a donor bead excites a nearby acceptor bead.)
Sequence of activated ERK2 (P28482 whole entry): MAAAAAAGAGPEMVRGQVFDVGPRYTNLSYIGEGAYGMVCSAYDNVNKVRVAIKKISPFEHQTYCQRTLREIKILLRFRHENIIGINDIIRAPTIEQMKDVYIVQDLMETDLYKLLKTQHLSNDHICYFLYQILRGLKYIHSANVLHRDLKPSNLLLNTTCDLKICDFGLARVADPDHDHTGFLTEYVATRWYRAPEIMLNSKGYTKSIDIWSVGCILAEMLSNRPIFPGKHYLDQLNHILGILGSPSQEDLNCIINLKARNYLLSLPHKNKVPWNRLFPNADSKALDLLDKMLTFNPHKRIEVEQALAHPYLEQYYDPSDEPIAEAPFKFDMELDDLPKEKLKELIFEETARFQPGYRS
The term IC50 denotes the concentration that gives 50% inhibition. As to `CN1CCC(Nc2ncc3c(n2)CN(C(=O)N[C@H](CO)c2ccccc2)C3(C)C)CC1=O` (stereo partly drawn) [compound 82, N-((S)-2-hydroxy-1-phenylethyl)-5,5-dimethyl-2-((1-methyl-2-oxopiperidin-4-yl)amino)-5H-pyrrolo[3,4-d]pyrimidine-6(7H)-carboxamide], the IC50 came out at 208 nM.

Take `CN1CCC(Nc2ncc3c(n2)CN(C(=O)N[C@H](CO)c2ccccc2)C3(C)C)CC1=O` (stereo partly drawn) [compound 83, N-((S)-2-hydroxy-1-phenylethyl)-5,5-dimethyl-2-((1-methyl-2-oxopiperidin-4-yl)amino)-5H-pyrrolo[3,4-d]pyrimidine-6(7H)-carboxamide]: the IC50 is 1160 nM. On to `CN1CC(Nc2ncc3c(n2)CN(C(=O)N[C@H](CO)c2ccccc2)C3(C)C)CCC1=O` (stereo partly drawn) [compound 84, N-((S)-2-hydroxy-1-phenylethyl)-5,5-dimethyl-2-((1-methyl-6-oxopiperidin-3-yl)amino)-5H-pyrrolo[3,4-d]pyrimidine-6(7H)-carboxamide], for which the IC50 was 164 nM.

Turning to `CC1(C)c2cnc(NC3CCC(=O)NC3)nc2CN1C(=O)N[C@H](CO)c1ccccc1` (stereo partly drawn) [compound 85, N-((S)-2-hydroxy-1-phenylethyl)-5,5-dimethyl-2-((6-oxopiperidin-3-yl)amino)-5H-pyrrolo[3,4-d]pyrimidine-6(7H)-carboxamide], the half-inhibitory concentration (IC50) was 53 nM. `CC1(C)c2cnc(NC3CCCCC3)nc2CN1C(=O)N[C@H](CO)c1ccccc1` [compound 86, (S)-2-(cyclohexylamino)-N-(2-hydroxy-1-phenylethyl)-5,5-dimethyl-5H-pyrrolo[3,4-d]pyrimidine-6(7H)-carboxamide]: the IC50 was 22 nM. Take `Cn1cc(-c2cccc(CNC(=O)N3Cc4nc(NC5CCOCC5)ncc4C3(C)C)c2)cn1` [compound 87, 5,5-dimethyl-N-(3-(1-methyl-1H-pyrazol-4-yl)benzyl)-2-((tetrahydro-2H-pyran-4-yl)amino)-5H-pyrrolo[3,4-d]pyrimidine-6(7H)-carboxamide]: the concentration for half-maximal inhibition (IC50) is 91 nM. As for `CC1(C)c2cnc(NC3CCOCC3)nc2CN1C(=O)NCc1cccc(C(N)=O)c1` [compound 88, N-(3-carbamoylbenzyl)-5,5-dimethyl-2-((tetrahydro-2H-pyran-4-yl)amino)-5H-pyrrolo[3,4-d]pyrimidine-6(7H)-carboxamide], the IC50 stood at 11 nM. Take `CC1(C)c2cnc(NC3CCOCC3)nc2CN1C(=O)NCc1nc(-c2ccc(F)cc2)cs1` [compound 89, N-((4-(4-fluorophenyl)thiazol-2-yl)methyl)-5,5-dimethyl-2-((tetrahydro-2H-pyran-4-yl)amino)-5H-pyrrolo[3,4-d]pyrimidine-6(7H)-carboxamide]: the IC50 was determined as 131 nM. Take `CC1(CO)c2cnc(NC3CCOCC3)nc2CN1C(=O)NCc1ccccc1` (stereo not shown) [compound 90, N-benzyl-5-(hydroxymethyl)-5-methyl-2-((tetrahydro-2H-pyran-4-yl)amino)-5H-pyrrolo[3,4-d]pyrimidine-6(7H)-carboxamide]: the half-maximal inhibitory concentration (IC50) was determined as 4020 nM. Consider `C[C@@H](NC(=O)N1Cc2nc(NC3CCOCC3)ncc2C1(C)CO)c1ccccc1` (stereo partly drawn) [compound 91, 5-(hydroxymethyl)-5-methyl-N-((R)-1-phenylethyl)-2-((tetrahydro-2H-pyran-4-yl)amino)-5H-pyrrolo[3,4-d]pyrimidine-6(7H)-carboxamide], for which the IC50 was 657 nM. `C[C@@H](NC(=O)N1Cc2nc(NC3CCOCC3)ncc2C1(C)CO)c1ccccc1` (stereo partly drawn) [compound 92, 5-(hydroxymethyl)-5-methyl-N-((R)-1-phenylethyl)-2-((tetrahydro-2H-pyran-4-yl)amino)-5H-pyrrolo[3,4-d]pyrimidine-6(7H)-carboxamide]: the IC50 is 1530 nM. `O=C(NCCc1ccccc1)N1Cc2nc(NC3CCOCC3)ncc2C12CCC2` [compound 96, N-phenethyl-2′-((tetrahydro-2H-pyran-4-yl)amino)spiro[cyclobutane-1,5′-pyrrolo[3,4-d]pyrimidine]-6′(7′H)-carboxamide]: the IC50 amounted to 90 nM. Turning to `O=C(Nc1cnn(Cc2ccccc2F)c1)N1Cc2nc(NC3CCOCC3)ncc2C12CCC2` [compound 99, N-(1-(2-fluorobenzyl)-1H-pyrazol-4-yl)-2′-((tetrahydro-2H-pyran-4-yl)amino)spiro[cyclobutane-1,5′-pyrrolo[3,4-d]pyrimidine]-6′(7′H)-carboxamide], the IC50 came out at 12 nM. The value for `CNC(=O)c1cccc(CNC(=O)N2Cc3nc(NC4CCOCC4)ncc3C2(C)C)c1` [compound 100, 5,5-dimethyl-N-(3-(methylcarbamoyl)benzyl)-2-((tetrahydro-2H-pyran-4-yl)amino)-5H-pyrrolo[3,4-d]pyrimidine-6(7H)-carboxamide] was 45 nM. In the case of `CN(C)C(=O)c1cccc(CNC(=O)N2Cc3nc(NC4CCOCC4)ncc3C2(C)C)c1` [compound 101, N-(3-(dimethylcarbamoyl)benzyl)-5,5-dimethyl-2-((tetrahydro-2H-pyran-4-yl)amino)-5H-pyrrolo[3,4-d]pyrimidine-6(7H)-carboxamide], the IC50 was determined as 492 nM.

In the case of `CNC(=O)C1CC(NC(=O)N2Cc3nc(NC4CCOCC4)ncc3C2(C)C)CN(Cc2ccccc2F)C1` (stereo not shown) [compound 102, N-(1-(2-fluorobenzyl)-5-(methylcarbamoyl)piperidin-3-yl)-5,5-dimethyl-2-((tetrahydro-2H-pyran-4-yl)amino)-5H-pyrrolo[3,4-d]pyrimidine-6(7H)-carboxamide], the IC50 was determined as 2300 nM. Consider `CNC(=O)C1CC(NC(=O)N2Cc3nc(NC4CCOCC4)ncc3C2(C)C)CN(Cc2cccc(Cl)c2)C1` (stereo not shown) [compound 103, N-(1-(3-chlorobenzyl)-5-(methylcarbamoyl)piperidin-3-yl)-5,5-dimethyl-2-((tetrahydro-2H-pyran-4-yl)amino)-5H-pyrrolo[3,4-d]pyrimidine-6(7H)-carboxamide], for which the IC50 turned out to be 9190 nM. In the case of `CC1(C)c2cnc(NC3CCOCC3)nc2CN1C(=O)N[C@@H]1CCN(Cc2cccc(Cl)c2)C1` [compound 104], the IC50 was determined as 37 nM.

For `CC1(C)c2cnc(NC3CCOCC3)nc2CN1C(=O)Nc1cnn(Cc2ccccc2F)c1` [compound 105, N-(1-(2-fluorobenzyl)-1H-pyrazol-4-yl)-5,5-dimethyl-2-((tetrahydro-2H-pyran-4-yl)amino)-5H-pyrrolo[3,4-d]pyrimidine-6(7H)-carboxamide], the IC50 is 39 nM.

As to `CC1(C)c2cnc(NC3CCOCC3)nc2CN1C(=O)NCc1cc(F)cc(S(C)(=O)=O)c1` [compound 107, N-(3-fluoro-5-(methylsulfonyl)benzyl)-5,5-dimethyl-2-((tetrahydro-2H-pyran-4-yl)amino)-5H-pyrrolo[3,4-d]pyrimidine-6(7H)-carboxamide], the IC50 was determined as 44 nM. As to `CC1(C)c2cnc(NC3CCOCC3)nc2CN1C(=O)NCc1ccc(S(C)(=O)=O)cc1` [compound 108, 5,5-dimethyl-N-(4-(methylsulfonyl)benzyl)-2-((tetrahydro-2H-pyran-4-yl)amino)-5H-pyrrolo[3,4-d]pyrimidine-6(7H)-carboxamide], the IC50 came out at 65 nM.

For `CC1(C)c2cnc(NC3CCOCC3)nc2CN1C(=O)NCc1cc(Cl)cc(S(C)(=O)=O)c1` [compound 109, N-(3-chloro-5-(methylsulfonyl)benzyl)-5,5-dimethyl-2-((tetrahydro-2H-pyran-4-yl)amino)-5H-pyrrolo[3,4-d]pyrimidine-6(7H)-carboxamide], the half-maximal inhibitory concentration (IC50) was found to be 6 nM.
